Where two headings read alike, the source gives them in different places.
Columns and labels:
4T1 cells = test: MTT cell viability/proliferation assay, 4T1; assay type: cell-based, murine; settings: Mus musculus, read-out: IC50 on 4T1 proliferation (mean ± SD)
Description: (§1) Human breast cancer cell lines (MCF-7: ER+, PR+, HER2-, EGFR+, MB-MDA-MB-231: […] All cells were cultured in suitable medium supplemented with 10% fetal bovine serum (FBS; […] Biotechnology Co., Ltd., Hangzhou, China), 100 U/mL penicillin, and 100 μg/mL streptomycin (Invitrogen, Carlsbad, CA, USA) at 37 °C in 5% CO2. MCF-7, MB-MDA-MB-231, HEK-293F, and HUVEC were grown in Dulbecco's modified Eagle's medium (DMEM; […] Subsequently, cells were treated with compound or vehicle (maximum 0.3% DMSO). After 48 h, cells were treated with MTT; the absorbance of the assay plate was read at 490 nm using a Multiskan GO Microplate Spectrophotometer (Thermo Fisher Scientific, Waltham, MA, USA).

MCF−7 cells [1] = test: Western blot of apoptosis and p38 MAPK proteins in MCF−7 cells; assay type: cell-based, human; settings: for expression of p38: high concentrations
Text: Total protein was obtained using RIPA lysis buffer (Beyotime Biotechnology, Shanghai, China) supplemented with phenylmethanesulfonyl fluoride (Beyotime Biotechnology, Shanghai, China), separated by SDS-PAGE, and transferred to the PVDF membrane by electroblotting (Bio-Rad, Hercules, CA, USA) followed by blocking with 5% milk in TBST. MTH1 antibody (Cat.No.ab200832, Abcam, Eugene, OR, USA), β-actin antibody (Cat.No.ab8227; Abcam, Eugene, OR, USA), ccaspae-3 antibody (Cat.No.14220, CST, Boston, USA), cleaved caspase-3 antibody (Asp175) (Cat.No.9664, CST, Boston, MA, USA), cleaved PARP antibody (Asp214) (Cat.No.95696, CST, Boston, MA, USA), p38 (Cat.No.9212, CST, Boston, MA, USA), and phospho-p38 MAPK (Thr180/Tyr182) (Cat.No.9211, CST, Boston, MA, USA) were used at a dilution of 1:1000–1:5000. Upon addition of primary and HRP-conjugated secondary antibodies, blots were detected using an ECL substrate (Thermo Fisher Scientific, Waltham, MA, USA) and the Tanon 5200 Chemiluminescent Imaging System (Tanon, Shanghai, China).

MCF−7 cells [2] = test: MTT cell viability/proliferation assay, MCF−7; assay type: cell-based; settings: Homo sapiens; for IC50: read-out: IC50 against MCF−7 cell proliferation (mean ± SD); for inhibition at 200 µM: compound concentration 200 μM, read-out: Inhibition (%) (Mean ± SD) of MCF−7 cell proliferation
Description: as §1

MDA-MB-231 cells = test: MTT cell viability/proliferation assay, MDA-MB-231; assay type: cell-based; settings: Homo sapiens, read-out: IC50 on MDA-MB-231 proliferation (mean ± SD)
Description: as §1

4T1 breast cancer tumor = 4T1 breast cancer tumor model in Balb/c mice; settings: for body weight compared to the control group / Ki67 expression / tumor cell proliferation in tumors: MA−24 60 mg/kg; for body weight compared to the control group: TH287 200 mg/kg i.p. every three days
Description: All animal experiments were carried out in accordance with a protocol approved by the Animal Ethics Committee of the China Pharmaceutical University. Female BALB/C mice were given food and water ad libitum. Approximately 7-week-old mice were injected subcutaneously with 2 × 10^5 4T1 cells in the left flank. When the mean tumor size reached 30~50 mm^3, vehicle (composed with 1% DMSO, 10% ethanol, 10% Chremophor EL, and 10% Tween-80, diluted with PBS), MTH1 inhibitor (MA−24 at 60 mg/kg or TH287 at 200 mg/kg), or 5-FU (30 mg/kg) was administered intraperitoneally every three days. Tumor size and body weights were measured twice weekly starting on the first day of treatment. Moreover, to minimize animal suffering, euthanasia by cervical dislocation was performed when the maximum diameter of the tumors exceeded 1 cm.

[3] = parameters: method as in PMID 25459754; settings: intraperitoneal injection, cited from earlier work
MTH1 [4] = target: T1, MTH1 (Homo sapiens, UniProt P36639); test: Target engagement by cellular thermal shift assay (CETSA) in MCF−7 cells; assay type: cell-based; settings: 50 μM, 4.5 h, 42 to 75 °C
Description: MCF−7 cells cultured in 6-well plates for 24 h were exposed to vehicle (0.5% DMSO) or 50 μM TH287 or MA−24 for 4.5 h. After trypsinization cells were detached, spun down and resuspended in PBS. Eight equational cells were heated for 3 min from 42 to 75 °C, and then lysed using RIPA lysis buffer. Western blot analysis was used to analyze the amounts of stabilized MTH1 using the MTH1 antibody.

HEK-293F cells = test: MTT cell viability/proliferation assay, HEK-293F (immortalized); assay type: cell-based; settings: HEK293F, 48 h, read-out: IC50 on HEK-293F proliferation (mean ± SD)
Description: as §1

CHO cells = test: MTT cell viability/proliferation assay, CHO (immortalized); assay type: cell-based; settings: Cricetulus griseus, 48 h, read-out: IC50 on CHO proliferation (mean ± SD)
Description: as §1

MTH1 [5] = target: T1, MTH1; test: MTH1 enzymatic inhibition, malachite green colorimetric assay; assay type: biochemical
Description: MTH1, inorganic pyrophosphatase, and dGTP (Thermo Fisher Scientific, Waltham, MA, USA) were diluted in assay buffer containing 100 mM Tris-acetate at pH 8.0, 40 mM NaCl, 10 mM Mg-acetate, 0.005% Tween 20, and 1 mM DTT. Briefly, serial dilutions of compounds were dissolved in assay buffer; meanwhile, MTH1 was diluted to 4 μg/mL, and then these two solutions were mixed and filled with buffer to 186 µL. After 15 min incubation at 25 °C, 10 µL dGTP (final concentration […]) and 4 µL inorganic pyrophosphatase (final concentration 0.2 U/mL) were added to start the reaction. The reaction mixture was incubated with shaking for 45 min at 25°C. Finally, 50 µL of malachite green assay reagent was added and incubated with shaking for 15 min at 25 °C. The absorbance of the assay plate was read at 630 nm using a Multiskan GO Microplate Spectrophotometer (Thermo Fisher Scientific, Waltham, MA, USA) and IC50 values were calculated using GraphPad Prism 9.5.1 Software.

[6] = parameters: method as in PMID 24695224; settings: in vitro studies; cited from earlier work
HUVEC cells = test: MTT cell viability/proliferation assay, HUVEC (immortalized); assay type: cell-based; settings: Homo sapiens, 48 h, read-out: IC50 on HUVEC proliferation (mean ± SD)
Description: as §1

MTH1 [7] = target: T1, MTH1; test: Kinetic analysis of MTH1 inhibition (reciprocal plot); assay type: biochemical; settings: consistent 1/Vmax
MCF−7 cells [8] = test: Alkaline comet assay in MCF−7 cells; assay type: cell-based, human; settings: 10 μM, 2 days
Description: MCF−7 cells (300,000 cells) were plated in 6-well plates and incubated for 24 h at 37 °C and 5% CO2. Subsequently, cells were treated with a compound (10 μM MA−24 and TH287) or vehicle (0.1% DMSO) for 2 days or with 150 μM for 10 min on ice. Cells were harvested as above. After washing twice with PBS, cells were re-suspended in PBS. Then, the 30 μL cell suspension was mixed with 150 µL 1.2% low-melting agarose that was maintained at 37 °C. The mixture was layered onto pre-warmed (37 °C) agarose-coated glass slides. The slides were kept on ice for 10 min and incubated in lysis buffer (10 mM Tris pH 7.7, 2.5 M NaCl, 0.1 M EDTA, 1% DMSO, and 1% Triton X-100) at 4 °C overnight in the dark. Slides were washed twice with enzyme reaction buffer (40 mM HEPES pH 8.0, 0.1 M KCl, 0.5 mM EDTA, and 0.2 mg/mL BSA) and incubated with Fpg […] (8 U/mL, New England Biolabs, Shanghai, China) at 37 °C for 45 min. Slides were washed once with enzyme reaction buffer and incubated in alkaline electrophoresis buffer (50 mM NaOH, 1 mM EDTA, and 1% DMSO) for 20 min. […] Images were acquired with a fluorescence microscope (Olympus Corporation, Tokyo, Japan) and quantified using Comet Score software, Version 1.5. At least 100 comets per sample were analyzed. Tail moment is calculated as the percentage of DNA in the tail multiplied by the tail length.

[9] = malachite green staining assay, dGTP substrate, read-out: IC50 to MTH1 (mean ± SD)
[10] = 5-FU 30 mg/kg i.p. every three days, 4T1 tumor

CNc1cc(-c2cccc(Cl)c2Cl)nc(N)n1 [TH287, reference compound]
IC50 (4T1 cells; 4T1, 48 h): 5.9 ± 1.02 µM
expression of p38 (MCF−7 cells [1]): significantly reduce the expression of p38
IC50 (MCF−7 cells [2]; MCF7, 48 h): 3.55 ± 0.27 µM
IC50 (MDA-MB-231 cells; MDA-MB-231, 48 h): 1.92 ± 0.34 µM
tumor growth inhibition rate (4T1 breast cancer tumor; 200 mg/kg intraperitoneally every three days, 4T1 tumor): 20.4%
body weight compared to the control group (4T1 breast cancer tumor): no statistically significant differences
blood drug concentration at 2, 3, and 4 h ([3]; 5mg/kg, 2, 3, and 4 h): below the detection limit
blood drug concentration at 1 h ([3]; 5mg/kg, 1 h): 1000 nM
thermal stabilization of MTH1 (CETSA) (MTH1 [4]): increase the thermal stability of the MTH1 protein
IC50 (HEK-293F cells): ≥ 25 µM
IC50 (CHO cells): ≥ 25 µM
IC50 (MTH1 [5]): 0.00316 ± 3e-05 µM
stability in vitro compared to TH588 [6]: poorer stability
IC50 (HUVEC cells): ≥ 25 µM
type of inhibition on MTH1 with respect to dGTP (MTH1 [7]): competitive inhibition type

CNc1cc(NCCc2ccc(F)cc2)nc(N)n1 [MA−25]
IC50 (MCF−7 cells [2]; MCF7, MTT assay, 48 h): 82.3 ± 1.02 µM
inhibition at 200 µM (MCF−7 cells [2]; MCF7, MTT assay): 100 ± 0.1%
IC50 (MTH1 [5]; [9]): 0.01374 ± 0.0001 µM

CNc1cc(NCCc2ccc(C)cc2)nc(N)n1 [MA−24]
IC50 (4T1 cells; 4T1, MTT assay, 48 h, cancer cell line): 14.8 ± 1.42 µM
expression of cleaved-caspase 3 and cleaved PARP (MCF−7 cells [1]; 30 μM): upregulation of cleaved-caspase 3 and cleaved PARP
expression of p38 (MCF−7 cells [1]): significantly reduce the expression of p38
IC50 (MCF−7 cells [2]; MCF7, MTT assay, 48 h): 23.9 ± 0.95 µM
inhibition at 200 µM (MCF−7 cells [2]; MCF7, MTT assay): 99.6 ± 0.4%
IC50 (MDA-MB-231 cells; MDA-MB-231, MTT assay, 48 h, cancer cell line): 48.4 ± 0.68 µM
tumor growth inhibition rate (4T1 breast cancer tumor; 60 mg/kg intraperitoneally every three days, 4T1 tumor): 61.8%
lung metastasis (4T1 breast cancer tumor; MA−24 60 mg/kg i.p. every three days, 4T1 tumor): reduced lung metastasis
Ki67 expression / tumor cell proliferation in tumors (4T1 breast cancer tumor; [10]): moderate reduction in Ki67 expression
body weight compared to the control group (4T1 breast cancer tumor): no statistically significant differences
thermal stabilization of MTH1 (CETSA) (MTH1 [4]): prominent thermal stabilization
IC50 (HEK-293F cells; MTT assay, immortalized cells): ≥ 75 µM
IC50 (CHO cells; MTT assay, immortalized cells): ≥ 75 µM
IC50 (MTH1 [5]; [9]): 0.0104 ± 0.00028 µM
DNA strand breaks (comet assay) (MCF−7 cells [8]): significantly increased DNA strand breaks
IC50 (HUVEC cells; MTT assay, immortalized cells): ≥ 75 µM
type of inhibition on MTH1 with respect to dGTP (MTH1 [7]): competitive inhibition type

O=c1[nH]cc(F)c(=O)[nH]1 [5-FU, 5-fluorouracil]
tumor growth inhibition rate (4T1 breast cancer tumor; 30 mg/kg intraperitoneally every three days, 4T1 tumor): 81.9%
toxicity: mouse mortality (4T1 breast cancer tumor; 5-FU 30 mg/kg i.p. every three days): mouse mortality starting from the 16th day of treatment
Ki67 expression / tumor cell proliferation in tumors (4T1 breast cancer tumor; [10]): inhibitory effect on tumor cell proliferation

From PMC10974945, “Targeting MutT Homolog 1 (MTH1) for Breast Cancer Suppression by Using a Novel MTH1 Inhibitor MA−24 with Tumor-Selective Toxicity” (Pharmaceuticals, 2024)
